Active and inactive are the calls of the source. The rule behind the calls is not given here.
What was measured:
[1] = molecular target: T1, Dual specificity mitogen-activated protein kinase kinase 7 (Homo sapiens) (UniProt O14733); test: Binding affinity to MKK7 (unknown origin) expressed in HEK293 cells assessed as dissociation constant at <30 uM by kinomescan method; assay type: cell-based
T1 sequence (whole entry): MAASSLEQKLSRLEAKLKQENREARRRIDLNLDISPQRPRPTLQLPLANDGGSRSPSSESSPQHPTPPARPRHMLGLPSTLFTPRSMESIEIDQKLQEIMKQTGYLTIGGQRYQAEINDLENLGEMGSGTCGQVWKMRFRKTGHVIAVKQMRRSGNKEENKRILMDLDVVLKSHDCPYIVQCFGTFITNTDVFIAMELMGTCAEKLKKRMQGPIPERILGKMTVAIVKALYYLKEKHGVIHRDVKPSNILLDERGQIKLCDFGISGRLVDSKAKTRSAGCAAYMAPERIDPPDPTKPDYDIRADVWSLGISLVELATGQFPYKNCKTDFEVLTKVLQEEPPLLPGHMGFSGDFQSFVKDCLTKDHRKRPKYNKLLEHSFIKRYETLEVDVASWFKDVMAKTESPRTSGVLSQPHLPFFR

[2] = molecular target: T2, M-phase inducer phosphatase 1 (Homo sapiens) (UniProt P30304); test: Inhibition of recombinant Cdc25A (unknown origin) at <50 uM using OMFP as substrate measured every 30 sec for 10 mins by fluorometric assay
T2 sequence (whole entry): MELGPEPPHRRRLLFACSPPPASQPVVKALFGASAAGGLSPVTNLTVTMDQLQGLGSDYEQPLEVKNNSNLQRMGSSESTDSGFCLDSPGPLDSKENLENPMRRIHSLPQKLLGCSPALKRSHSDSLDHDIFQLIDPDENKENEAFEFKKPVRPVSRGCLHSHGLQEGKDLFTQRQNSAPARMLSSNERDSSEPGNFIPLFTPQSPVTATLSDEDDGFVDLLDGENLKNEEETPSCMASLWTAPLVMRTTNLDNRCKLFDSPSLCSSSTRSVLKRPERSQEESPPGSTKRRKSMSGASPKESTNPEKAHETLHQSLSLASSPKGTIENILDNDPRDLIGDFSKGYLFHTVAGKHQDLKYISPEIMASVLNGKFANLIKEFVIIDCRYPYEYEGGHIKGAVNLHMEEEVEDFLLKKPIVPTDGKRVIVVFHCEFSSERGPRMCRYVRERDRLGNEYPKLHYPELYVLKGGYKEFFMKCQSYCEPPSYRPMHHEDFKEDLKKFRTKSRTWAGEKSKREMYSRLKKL

[3] = molecular target: T3, Neutrophil elastase (Homo sapiens) (UniProt P08246); test: Inhibition of recombinant HNE (unknown origin) at <50 uM using N-methylsuccinyl-Ala-Ala-Pro-Val-7-amino-4-methylcoumarin, as a substrate measured every 30 sec for 10 mins by fluorometric assay
T3 sequence (whole entry): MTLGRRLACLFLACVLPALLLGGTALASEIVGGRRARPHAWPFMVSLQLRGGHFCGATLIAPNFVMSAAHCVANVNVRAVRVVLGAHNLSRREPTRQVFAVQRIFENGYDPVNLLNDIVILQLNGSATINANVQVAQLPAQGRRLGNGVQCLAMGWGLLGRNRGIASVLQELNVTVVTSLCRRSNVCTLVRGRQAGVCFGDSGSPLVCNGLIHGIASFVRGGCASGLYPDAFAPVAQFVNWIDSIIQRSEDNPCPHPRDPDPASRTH

[4] = molecular target: T4, M-phase inducer phosphatase 2 (Homo sapiens, UniProt P30305)
T4 sequence (P30305 whole entry): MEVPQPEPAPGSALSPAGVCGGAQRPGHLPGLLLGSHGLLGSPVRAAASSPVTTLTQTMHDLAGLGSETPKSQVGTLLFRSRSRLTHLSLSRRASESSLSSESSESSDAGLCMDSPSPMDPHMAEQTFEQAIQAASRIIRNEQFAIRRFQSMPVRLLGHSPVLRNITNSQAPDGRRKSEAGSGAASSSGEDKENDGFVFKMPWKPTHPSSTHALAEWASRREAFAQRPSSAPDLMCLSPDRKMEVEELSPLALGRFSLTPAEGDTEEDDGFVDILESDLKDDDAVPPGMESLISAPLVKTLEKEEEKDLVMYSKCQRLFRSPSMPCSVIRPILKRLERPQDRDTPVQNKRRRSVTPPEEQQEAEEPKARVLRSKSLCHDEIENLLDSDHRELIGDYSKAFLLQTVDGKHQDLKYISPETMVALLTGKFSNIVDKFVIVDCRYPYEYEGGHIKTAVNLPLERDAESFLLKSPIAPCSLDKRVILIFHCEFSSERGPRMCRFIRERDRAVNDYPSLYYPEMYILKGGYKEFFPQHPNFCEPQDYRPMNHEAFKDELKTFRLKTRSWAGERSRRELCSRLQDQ
Description: Inhibition of recombinant Cdc25B (unknown origin) using OMFP as substrate measured every 30 sec for 10 mins by fluorometric assay

[5] = molecular target: T5, M-phase inducer phosphatase 2 (Homo sapiens) (UniProt P30305); test: Inhibition of recombinant Cdc25B (unknown origin) at <50 uM using OMFP as substrate measured every 30 sec for 10 mins by fluorometric assay
T5 sequence (whole entry): T4 sequence (P30305 whole entry)

[6] = molecular target: T6, M-phase inducer phosphatase 1 (Homo sapiens, UniProt P30304)
T6 sequence (P30304 whole entry): T2 sequence (whole entry)
Description: Inhibition of recombinant Cdc25A (unknown origin) using OMFP as substrate measured every 30 sec for 10 mins by fluorometric assay

THP-1 [7] = test: Cytotoxicity against human THP1 cells assessed as reduction in cell viability at <50 uM incubated for 24 hrs by CellTiter-Glo luminescent cell viability assay; assay type: functional, cell-based
MONO-MAC-6 [8] = test: Cytotoxicity against human MONO-MAC-6 cells assessed as reduction in cell viability at <50 uM incubated for 24 hrs by CellTiter-Glo luminescent cell viability assay; assay type: functional, cell-based
HL-60 [9] = test: Cytotoxicity against human HL60 cells assessed as reduction in cell viability at <50 uM incubated for 24 hrs by CellTiter-Glo luminescent cell viability assay; assay type: functional, cell-based
SW982 [10] = test: Cytotoxicity against human SW982 cells assessed as reduction in cell viability at <50 uM incubated for 24 hrs by CellTiter-Glo luminescent cell viability assay; assay type: functional, cell-based
Jurkat [11] = test: Cytotoxicity against human Jurkat cells assessed as reduction in cell viability at <50 uM incubated for 24 hrs by CellTiter-Glo luminescent cell viability assay; assay type: functional, cell-based
U-937 [12] = test: Cytotoxicity against human U937 cells assessed as reduction in cell viability at <50 uM incubated for 24 hrs by CellTiter-Glo luminescent cell viability assay; assay type: functional, cell-based
MCF7 [13] = test: Cytotoxicity against human MCF7 cells assessed as reduction in cell viability at <50 uM incubated for 24 hrs by CellTiter-Glo luminescent cell viability assay; assay type: functional, cell-based
LS174T [14] = test: Cytotoxicity against human LS174T cells assessed as reduction in cell viability at <50 uM incubated for 24 hrs by CellTiter-Glo luminescent cell viability assay; assay type: functional, cell-based
A549 [15] = test: Cytotoxicity against human A549 cells assessed as reduction in cell viability at <50 uM incubated for 24 hrs by CellTiter-Glo luminescent cell viability assay; assay type: functional, cell-based
PBMC [16] = test: Cytotoxicity against human PBMC cells assessed as reduction in cell viability at <50 uM incubated for 24 hrs by CellTiter-Glo luminescent cell viability assay; assay type: cell-based
THP-1 [17] = test: Cytotoxicity against human THP1 cells assessed as reduction in cell viability incubated for 24 hrs by CellTiter-Glo luminescent cell viability assay; assay type: functional, cell-based; conditions: THP-1, 24 h
MONO-MAC-6 [18] = test: Cytotoxicity against human MONO-MAC-6 cells assessed as reduction in cell viability incubated for 24 hrs by CellTiter-Glo luminescent cell viability assay; assay type: functional, cell-based; conditions: MONO-MAC-6, 24 h
HL-60 [19] = test: Cytotoxicity against human HL60 cells assessed as reduction in cell viability incubated for 24 hrs by CellTiter-Glo luminescent cell viability assay; assay type: functional, cell-based; conditions: HL-60, 24 h
U-937 [20] = test: Cytotoxicity against human U937 cells assessed as reduction in cell viability incubated for 24 hrs by CellTiter-Glo luminescent cell viability assay; assay type: functional, cell-based; conditions: U-937, 24 h
Jurkat [21] = test: cells; conditions: Homo sapiens, 24 h
Description: Cytotoxicity against human Jurkat cells assessed as reduction in cell viability incubated for 24 hrs by CellTiter-Glo luminescent cell viability assay

Neutrophil elastase = molecular target: T7, Neutrophil elastase (Homo sapiens, UniProt P08246); test: Inhibition of recombinant HNE (unknown origin) using N-methylsuccinyl-Ala-Ala-Pro-Val-7-amino-4-methylcoumarin, as a substrate measured every 30 sec for 10 mins by fluorometric assay
T7 sequence (P08246 whole entry): T3 sequence (whole entry)

SW982 [22] = test: Cytotoxicity against human SW982 cells assessed as reduction in cell viability incubated for 24 hrs by CellTiter-Glo luminescent cell viability assay; assay type: functional, cell-based; conditions: SW982, 24 h
MCF7 [23] = test: Cytotoxicity against human MCF7 cells assessed as reduction in cell viability incubated for 24 hrs by CellTiter-Glo luminescent cell viability assay; assay type: functional, cell-based; conditions: MCF7, 24 h
PBMC [24] = test: Cytotoxicity against human PBMC cells assessed as reduction in cell viability incubated for 24 hrs by CellTiter-Glo luminescent cell viability assay; assay type: cell-based; conditions: read-out: IC50
[25] = molecular target: T8, Dual specificity mitogen-activated protein kinase kinase 7 (Homo sapiens, UniProt O14733); test: biochemical
T8 sequence (O14733 whole entry): T1 sequence (whole entry)
Description: Binding affinity to MKK7 (unknown origin) expressed in HEK293 cells assessed as dissociation constant by kinomescan method

LS174T [26] = test: Cytotoxicity against human LS174T cells assessed as reduction in cell viability incubated for 24 hrs by CellTiter-Glo luminescent cell viability assay; assay type: functional, cell-based
A549 [27] = test: Cytotoxicity against human A549 cells assessed as reduction in cell viability incubated for 24 hrs by CellTiter-Glo luminescent cell viability assay; assay type: functional, cell-based; conditions: A549, 24 h

SMILES	Activity [1]	inhibition [3]	IC50 [4] [µM]	inhibition [1]	inhibition [5]	IC50 [6] [µM]	IC50 (THP-1 [17]) [µM]	IC50 (MONO-MAC-6 [18]) [µM]	IC50 (HL-60 [19]) [µM]	IC50 (U-937 [20]) [µM]	IC50 (Jurkat [21]) [µM]	IC50 (SW982 [22]) [µM]	IC50 (MCF7 [23]) [µM]	IC50 (PBMC [24]) [µM]	Kd [25] [µM]	also measured
CC(C)(C)[C@H]1CC[C@H](CC2=C(O)C(=O)c3ccccc3C2=O)CC1 [BUPARVAQUONE]	inactive	inactive	12	–	–	–	–	–	–	–	–	–	–	–	–	inhibition [2]: inactive
O=C1C(Cl)=C(NCCCO)C(=O)c2ccccc21	–	inactive	–	inactive	inactive	45.7	–	–	–	–	–	–	–	–	–	–
CC(C)=CCC1=C(O)C(=O)c2ccccc2C1=O [LAPACHOL]	inactive	inactive	42.7	–	–	33.2	–	–	–	–	–	–	–	–	–	Activity (THP-1 [7]): inactive; Activity (MONO-MAC-6 [8]): inactive; Activity (HL-60 [9]): inactive; Activity (SW982 [10]): inactive; Activity (Jurkat [11]): inactive; Activity (U-937 [12]): inactive; Activity (MCF7 [13]): inactive; Activity (LS174T [14]): inactive; Activity (A549 [15]): inactive; Activity (PBMC [16]): Non-Toxic
COC1=C(C)C(=O)c2ccccc2C1=O	inactive	inactive	33.1	–	–	22.3	47.3	18.4	20.4	35.1	49.2	–	–	–	–	Activity (SW982 [10]): inactive; Activity (LS174T [14]): inactive; Activity (A549 [15]): inactive; Activity (PBMC [16]): Non-Toxic
CC(SC1=CC(=O)c2ccccc2C1=O)C(=O)O (centres undefined)	–	–	5.2	–	–	5.4	–	43.6	20.5	34.6	17.9	21.1	27.9	23.8	2.1	IC50 (Neutrophil elastase): 36.1 µM
O=C1C(Cl)=C(NCCCN2CCOCC2)C(=O)c2ccccc21	–	inactive	–	inactive	inactive	–	–	–	–	–	–	–	–	–	–	inhibition [2]: inactive
O=C(O)CNC1=C(Cl)C(=O)c2ccccc2C1=O	–	inactive	–	inactive	inactive	36	–	–	–	–	–	–	–	–	–	–
COC(=O)c1ccc(NC2=C(OC)C(=O)c3ccccc3C2=O)cc1	–	inactive	–	inactive	inactive	–	–	–	–	–	–	–	–	–	–	inhibition [2]: inactive
O=C(O)c1cccc(NC2=C(Cl)C(=O)c3ccccc3C2=O)c1	–	inactive	24.3	–	–	32.9	8.6	13.4	12.1	7.6	8.2	5.5	28.5	37.9	1.9	IC50 (LS174T [26]): 11.7 µM; IC50 (A549 [27]): 26.2 µM
COc1ccc(OC)c2c1C(=O)C=C(SCCC(=O)O)C2=O	inactive	inactive	7.8	–	–	26	33.3	12.8	28.7	26.6	21.3	–	–	–	–	Activity (SW982 [10]): inactive; Activity (MCF7 [13]): inactive; Activity (LS174T [14]): inactive; Activity (A549 [15]): inactive; Activity (PBMC [16]): Non-Toxic
O=C1C(SCCO)=C(SCCO)C(=O)c2ccccc21	–	inactive	–	–	–	–	–	4.2	1	3.9	3.7	7.9	9.4	7.8	1.1	IC50 (LS174T [26]): 18.1 µM; IC50 (A549 [27]): 13.1 µM
COC1=C(OC)C(=O)c2ccccc2C1=O	–	inactive	17.4	–	–	8.9	8.2	3.6	5.4	11.3	–	20.6	6.3	18.5	27	IC50 (LS174T [26]): 27.9 µM; IC50 (A549 [27]): 15.6 µM
O=C1C(Cl)=C(NCCO)C(=O)c2ccccc21	–	inactive	–	inactive	inactive	45.3	–	–	–	–	–	–	–	–	–	–

From ChEMBL document CHEMBL4311981, “Synthesis, anticancer activity, and molecular modeling of 1,4-naphthoquinones that inhibit MKK7 and Cdc25” (Eur J Med Chem, 2019)
